What was measured:
[1] = cited from earlier work
[2] = test system: AT8 (hyperphosphorylated Tau); assay: AT8 immunohistochemistry (hyperphosphorylated Tau); assay type: in vivo, mouse; settings: WT males, data not shown
Procedure: AT8 Immunohistochemistry—experiment was performed as previously described (100). Mice were treated for 6 weeks with daily intranasal DD/NAP and were euthanized at 10.21±0.05 weeks of age.

Tyr mice = assay: Developmental milestone assessment, weight and length of Tyr mouse pups; assay type: in vivo
Procedure: Animals—Animals were housed under a 12-hour light/dark cycle, with food and water ad-libitum. Mouse pups were subcutaneously administrated with NAP [having an amino acid sequence NAPVSIPQ (SEQ ID NO: 2), 25 μg NAP/1 ml saline] as described (8, 12). At 21 days of age mice were administered daily intranasal NAP in vehicle solution (“DD”—7.5 mg/ml of NaCl, 1.7 mg/ml of citric acid, 3 mg/ml of disodium phosphate dihydrate, and 0.2 mg/ml of 50% benzalkonium chloride solution) (0.5 μg NAP/5p1 DD) (8, 9, 12, and U.S. Pat. No. 10,912,819 to Gozes). These mice continued to behavioral analysis as described hereinbelow. The noninvasive intranasal route was chosen as these experiments required daily handling and administration. Age (weeks) of mice during behavioral experiments (mean±SEM) was as follows: Catwalk—9.23±0.15, grooming—10±0.15, social approach—10.5±0.12, odor-discrimination—12.12±0.13, hanging-wire—13±0.14, hotplate—13.18±0.13. Group size was determined following previous experiments (12). Pups were randomly allocated to either the NAP or DD group according to sex and genotype. All procedures involving animals were conducted under the supervision and approval of the institutional animal care and use committee of Tel Aviv University and the Israeli Ministry of Health.
Developmental milestone assessment and fostering—This experiment included animals from 16 litters in 2 experimental batches. It was performed as previously described (12) with slight modifications. Experimenters were blinded to sex and genotype during experimental procedures. Sexes were grouped if no statistically significant sex differences were discovered.
Additional behavioral assessments— • Fostering: To enable daily handling necessary for developmental milestone assessment and drug treatment, Tyr pups were fostered by ICR females which are known to be excellent dams. Tyr pups were moved after birth to an ICR female mouse who gave birth up to 48 hours prior. ICR litter was culled according to the number of Tyr pups that were added. One day afterwards the remaining ICR pups were euthanized so only Tyr pups were left in the litter. • Pup litter distribution analysis: The genotyping results at p1 after placement with the foster mother was used for this measurement. […] The same day pups were randomized to either NAP or Saline treatment groups according to genotype and sex results and developmental milestone assessment was performed from p1 to p21. As animal randomization ended up with unequal male/female ratios for certain groups and no statistical differences were found between the sexes in any of the 4 treatment groups (T test), the sexes […], [That is except for eye opening, where a significant difference was observed between the sexes in the Tyr group (P=0.047, no significance in the other three treatment groups)]. Pup paws were tattooed using a 31-gauge needle and tattoo ink (Ketchum Manufacturing Co., catalog 329AA) for identification on P1 and, until P21, underwent daily measurements for length and weight and observation for eye opening. Pups were injected daily with NAP, 1 hour prior to the tests as previously described^1.
Briefly, for ear twitch reflex, a cotton tip was gently brushed against the tip of the ear three times, between postnatal days 7-15 or until the pup responded correctly for two consecutive days. For air righting reflex, the pup was held up-side down and released ˜10.5 cm above the cage, containing 5 cm of shavings. The test was performed between postnatal days 8-21 or until the pup landed on the shavings with all four paws, for two consecutive days. For surface righting reflex, pups were placed on their backs on a level surface, the test was performed between postnatal days 1-13 until the pups was able to right itself with all four paws on the surface in under a second for two consecutive days. For eye opening, mice were observed daily until both eyes were open (eyelids separated completely). […]

For `CC[C@H](C)[C@H](NC(=O)[C@H](CO)NC(=O)[C@@H](NC(=O)[C@@H]1CCCN1C(=O)[C@H](C)NC(=O)[C@@H](N)CC(N)=O)C(C)C)C(=O)N1CCC[C@H]1C(=O)N[C@@H](CCC(N)=O)C(=O)O` [NAP, NAPVSIPQ], the “bioavailability / cell penetration” value [1] is given as “bioavailable by endocytosis”, the AT8 positive cells [2] is given as “did not display a NAP effect” and the rooting reflex (Tyr mice; Tyr mice, data not shown) is given as “induced rooting in Tyr mice”. For the same compound, the “surface-righting, first day of acquisition” value (Tyr mice; Tyr pups, daily s.c. NAP, WT 8.69±0.42, Tyr 10.14±0.36) was 8.81 ± 0.33 days, the “air-righting, first day of acquisition” value (Tyr mice; Tyr pups, daily s.c. NAP, WT 12.96±0.28, Tyr 15.29±0.15) was 14.63 ± 0.38 days and the body weight (Tyr mice; WT female mice, data not shown) was “no effect observed on WT female mice”. The eye opening (Tyr mice; WT females, data not shown) was “no NAP effect was observed in WT females”, the developmental milestones (Tyr mice; WT littermates, data not shown) was “no effect on WT littermates except for the cliff aversion response” and the eye opening (Tyr mice; female Tyr mice, Tyr 16±0.37, WT 14.93±0.43) was 14.78 ± 0.46 days. For the same compound, the eye opening (Tyr mice; males, data not shown) was “No genotype/NAP effect was observed on males”.
